# Source: ChEMBL document CHEMBL2440076, “New triarylpyrazoles as broad-spectrum anticancer agents: design, synthesis, and biological evaluation” (Eur J Med Chem, 2013)
# Key:
# 786-0 = experiment: Growth inhibition of human 786-0 cells after 48 hrs by sulforhodamine B assay; assay type: functional; details: 786-0, 48 h
# OVCAR-8 = experiment: Growth inhibition of human OVCAR8 cells after 48 hrs by sulforhodamine B assay; assay type: functional; details: OVCAR-8, 48 h
# MDA-MB-231 = experiment: Growth inhibition of human MDA-MB-231 cells assessed as cell growth at 10 uM after 48 hrs by sulforhodamine B assay; assay type: functional; details: MDA-MB-231, 48 h, read-out: Activity
# HOP-62 = experiment: Growth inhibition of human HOP62 cells after 48 hrs by sulforhodamine B assay; assay type: functional; details: HOP-62, 48 h
# U-251 = experiment: Growth inhibition of human U251 cells after 48 hrs by sulforhodamine B assay; assay type: functional; details: U-251, 48 h
# SF-295 = experiment: Growth inhibition of human SF295 cells after 48 hrs by sulforhodamine B assay; assay type: functional, cell-based; details: SF-295, 48 h
# SK-OV-3 = experiment: Growth inhibition of human SKOV3 cells after 48 hrs by sulforhodamine B assay; assay type: functional; details: SK-OV-3, 48 h
# NCI-H23 = experiment: Growth inhibition of human NCI-H23 cells assessed as cell growth at 10 uM after 48 hrs by sulforhodamine B assay; assay type: functional; details: NCI-H23, 48 h, read-out: Activity
# IGROV-1 = experiment: Growth inhibition of human IGROV1 cells after 48 hrs by sulforhodamine B assay; assay type: functional; details: IGROV-1, 48 h
# HCT-116 = experiment: Growth inhibition of human HCT116 cells assessed as cell growth at 10 uM after 48 hrs by sulforhodamine B assay; assay type: functional; details: HCT-116, 48 h, read-out: Activity
# DU-145 = experiment: Growth inhibition of human DU145 cells assessed as cell growth at 10 uM after 48 hrs by sulforhodamine B assay; assay type: functional; details: DU-145, 48 h, read-out: Activity
# SR = experiment: Growth inhibition of human SR cells after 48 hrs by sulforhodamine B assay; assay type: functional
# UACC-257 = experiment: Growth inhibition of human UACC257 cells assessed as cell growth at 10 uM after 48 hrs by sulforhodamine B assay; assay type: functional; details: UACC-257, 48 h, read-out: Activity
# KM12 = experiment: Growth inhibition of human KM12 cells assessed as cell growth at 10 uM after 48 hrs by sulforhodamine B assay; assay type: functional; details: KM12, 48 h, read-out: Activity
# M14 = experiment: Growth inhibition of human M14 cells after 48 hrs by sulforhodamine B assay; assay type: functional; details: M14, 48 h
# UACC-62 = experiment: Growth inhibition of human UACC62 cells after 48 hrs by sulforhodamine B assay; assay type: functional; details: UACC-62, 48 h
# NCI-H522 = experiment: Growth inhibition of human NCI-H522 cells after 48 hrs by sulforhodamine B assay; assay type: functional; details: NCI-H522, 48 h
# MOLT-4 [1] = experiment: Growth inhibition of human MOLT4 cells assessed as cell growth at 10 uM after 48 hrs by sulforhodamine B assay; assay type: functional; details: MOLT-4, 48 h, read-out: Activity
# HL-60(TB) = experiment: Growth inhibition of human HL-60(TB) cells after 48 hrs by sulforhodamine B assay; assay type: functional; details: HL-60, 48 h
# COLO 205 = experiment: Growth inhibition of human COLO205 cells assessed as cell growth at 10 uM after 48 hrs by sulforhodamine B assay; assay type: functional; details: COLO 205, 48 h, read-out: Activity
# MDA-MB-468 = experiment: Growth inhibition of human MDA-MB-468 cells assessed as cell growth at 10 uM after 48 hrs by sulforhodamine B assay; assay type: functional; details: MDA-MB-468, 48 h, read-out: Activity
# K562 = experiment: Growth inhibition of human K562 cells assessed as cell growth at 10 uM after 48 hrs by sulforhodamine B assay; assay type: functional; details: K562, 48 h, read-out: Activity
# SF-268 = experiment: Growth inhibition of human SF268 cells after 48 hrs by sulforhodamine B assay; assay type: functional; details: SF-268, 48 h
# BT-549 = experiment: Growth inhibition of human BT549 cells assessed as cell growth at 10 uM after 48 hrs by sulforhodamine B assay; assay type: functional; details: BT-549, 48 h, read-out: Activity
# ACHN = experiment: Growth inhibition of human ACHN cells after 48 hrs by sulforhodamine B assay; assay type: functional
# SK-MEL-28 = experiment: Growth inhibition of human SK-MEL-28 cells after 48 hrs by sulforhodamine B assay; assay type: functional; details: SK-MEL-28, 48 h
# MDA-MB-435 = experiment: Growth inhibition of human MDA-MB-435 cells assessed as cell growth at 10 uM after 48 hrs by sulforhodamine B assay; assay type: functional; details: MDA-MB-435, 48 h, read-out: Activity
# SK-MEL-2 = experiment: Growth inhibition of human SK-MEL-2 cells after 48 hrs by sulforhodamine B assay; assay type: functional; details: SK-MEL-2, 48 h
# [2] = Growth inhibition of human Hs 578T cells assessed as cell growth at 10 uM after 48 hrs by sulforhodamine B assay; assay type: functional; details: read-out: Activity
# HT-29 = experiment: Growth inhibition of human HT-29 cells assessed as cell growth at 10 uM after 48 hrs by sulforhodamine B assay; assay type: functional; details: HT-29, 48 h, read-out: Activity
# MOLT-4 [3] = experiment: Growth inhibition of human MOLT4 cells after 48 hrs by sulforhodamine B assay; assay type: functional; details: MOLT-4, 48 h
# TK-10 = experiment: Growth inhibition of human TK10 cells assessed as cell growth at 10 uM after 48 hrs by sulforhodamine B assay; assay type: functional; details: TK-10, 48 h, read-out: Activity
# NCI-H226 = experiment: Growth inhibition of human NCI-H226 cells assessed as cell growth at 10 uM after 48 hrs by sulforhodamine B assay; assay type: functional; details: NCI-H226, 48 h, read-out: Activity
# SN12C = experiment: Growth inhibition of human SN12C cells after 48 hrs by sulforhodamine B assay; assay type: functional
# [4] = read-out: LC50 (the source's name)
smiles,measurement,setting,value
O=C(Nc1cccc(-n2cc(-c3ccncc3)c(-c3ccc(Cl)c(O)c3)n2)c1)Nc1cccc(C(F)(F)F)c1,GI50,786-0,4.69 µM
same,TGI,786-0,> 32.5 µM
same,CC50,786-0; [4],> 32.5 µM
same,GI50,OVCAR-8,1.57 µM
same,TGI,OVCAR-8,> 32.5 µM
same,CC50,OVCAR-8; [4],> 32.5 µM
same,growth at 10 µM,MDA-MB-231,21.3%
same,GI50,HOP-62,6.86 µM
same,TGI,HOP-62,> 32.5 µM
same,CC50,HOP-62; [4],> 32.5 µM
same,GI50,U-251,1.59 µM
same,LC50 (concentration killing 50% of cells),U-251,> 32.5 µM
same,TGI,U-251,7.65 µM
same,GI50,SF-295,0.962 µM
same,IC50,SF-295,0.96 µM
same,TGI,SF-295,4.26 µM
same,CC50,SF-295; [4],29.2 µM
same,GI50,SK-OV-3,4.97 µM
same,TGI,SK-OV-3,> 32.5 µM
same,CC50,SK-OV-3; [4],> 32.5 µM
same,growth at 10 µM,NCI-H23,14.6%
same,GI50,IGROV-1,1.64 µM
same,LC50 (concentration killing 50% of cells),IGROV-1,> 32.5 µM
same,TGI,IGROV-1,> 32.5 µM
same,growth at 10 µM,HCT-116,9.75%
same,growth at 10 µM,DU-145,23.1%
same,GI50,SR,1.82 µM
same,TGI,SR,20 µM
same,CC50,SR; [4],> 32.5 µM
same,growth at 10 µM,UACC-257,-11.6%
same,growth at 10 µM,KM12,2.46%
same,GI50,M14,1.4 µM
same,LC50 (concentration killing 50% of cells),M14,> 32.5 µM
same,TGI,M14,10.8 µM
same,GI50,UACC-62,1.65 µM
same,LC50 (50% lethal concentration),UACC-62,21.9 µM
same,TGI,UACC-62,6.91 µM
same,GI50,NCI-H522,1.46 µM
same,LC50 (concentration killing 50% of cells),NCI-H522,> 32.5 µM
same,TGI,NCI-H522,14.5 µM
same,growth at 10 µM,MOLT-4 [1],12.5%
same,GI50,HL-60(TB),1.45 µM
same,TGI,HL-60(TB),> 32.5 µM
same,CC50,HL-60(TB); [4],> 32.5 µM
same,growth at 10 µM,COLO 205,94.2%
same,growth at 10 µM,MDA-MB-468,10.5%
same,growth at 10 µM,K562,13.4%
same,GI50,SF-268,1.95 µM
same,TGI,SF-268,15.8 µM
same,CC50,SF-268; [4],> 32.5 µM
same,growth at 10 µM,BT-549,36%
same,GI50,ACHN,1.29 µM
same,TGI,ACHN,> 32.5 µM
same,CC50,ACHN; [4],> 32.5 µM
same,GI50,SK-MEL-28,4.11 µM
same,LC50,SK-MEL-28,> 32.5 µM
same,TGI,SK-MEL-28,> 32.5 µM
same,growth at 10 µM,MDA-MB-435,15.6%
same,GI50,SK-MEL-2,2.02 µM
same,LC50 (50% lethal concentration),SK-MEL-2,> 32.5 µM
same,TGI,SK-MEL-2,10.8 µM
same,growth at 10 µM,[2],29.4%
same,growth at 10 µM,HT-29,77.8%
same,GI50,MOLT-4 [3],1.92 µM
same,TGI,MOLT-4 [3],> 32.5 µM
same,CC50,MOLT-4 [3]; [4],> 32.5 µM
same,growth at 10 µM,TK-10,21.9%
same,growth at 10 µM,NCI-H226,35.1%
same,GI50,SN12C,2.01 µM
same,TGI,SN12C,> 32.5 µM
same,CC50,SN12C; [4],> 32.5 µM
